Source: patent US12071407B1, “6-(4-hydroxyphenyl)-2-(2-ethoxyethoxy)-4-(4-methoxyphenyl)nicotinonitrile as an antimicrobial compound” (KING FAISAL UNIVERSITY, priority 2023, dated 2024)

Tests used:
Escherichia coli = experiment: Antimicrobial screening by agar dilution; type: cell-based; conditions: after 10, 20, 40 and 60 minutes at all dilutions 1:100, 1:200, 1:400, 1:800
Protocol: (§1) The antibacterial properties of the synthesized compound 6-(4-hydroxyphenyl)-2-(2-ethoxyethoxy)-4-(4-methoxyphenyl)nicotinonitrile were studied by the method of agar dilution. Test solutions of each compound was prepared in concentration of 1% using dimethylformamide as a solvent then they are diluted in physiological solution to obtain the final experimental dilutions 1:100, 1:200, 1:400, 1:800. The effects of these substances are compared with furacillin in a controllable study. The testing microbes used were gram positive bacteria Staphylococcus aureus, gram negative bacteria Pseudomonas aeruginosa and Escherichia coli and Candida albicans fungus. The experiments used for this survey were meat-pentonlu agar (EPA) for cultivation of bacteria and Saburo environment for the fungus. Each experiment used 1 mL of test solution on each plate […]. Two drops of emulsified with microbes feel were added. All experimental samples were taken from the agar after 10, 20, 40, 60 minutes in the environment on the basis of Patrk planted. The bacteria were cultivated at a temperature of 37° C. for 1 day and the mushroom was kept in a thermostat for […] at a temperature of 28° C. Then results were checked.

Staphylococcus aureus = experiment: Antimicrobial screening by agar dilution; type: cell-based; conditions: after 10, 20, 40 and 60 minutes at all dilutions 1:100, 1:200, 1:400, 1:800
Protocol: as §1

Candida albicans = experiment: Antimicrobial screening by agar dilution; type: cell-based; conditions: after 10, 20, 40 and 60 minutes at all dilutions 1:100, 1:200, 1:400, 1:800
Protocol: as §1

Pseudomonas aeruginosa = experiment: Antimicrobial screening by agar dilution; type: cell-based; conditions: after 10, 20, 40 and 60 minutes at all dilutions 1:100, 1:200, 1:400, 1:800
Protocol: as §1

- melting point: 209 to 211 °C
Compound: CCOCCOc1nc(-c2ccc(O)cc2)cc(-c2ccc(OC)cc2)c1C#N [6-(4-hydroxyphenyl)-2-(2-ethoxyethoxy)-4-(4-methoxyphenyl)nicotinonitrile]
- inhibition activity (summary in words) (Escherichia coli): highest inhibition activity
- inhibition activity (summary in words) (Staphylococcus aureus): highest inhibition activity
- inhibition activity (summary in words) (Candida albicans): highest inhibition activity
- inhibition activity (summary in words) (Pseudomonas aeruginosa): highest inhibition activity
